Measured values from patent US11155517B2, “4-substituted phenylamine derivatives and their use to protect crops by fighting undesired phytopathogenic micoorganisms” (PI INDUSTRIES LTD., priority 2016, dated 2021).

Experiments:
[1] = tested on: Pyricularia oryzae; assay: microbe, parasite or virus in culture; type: cell-based; conditions: 168 h, read-out: % control compared to the untreated check (radial growth)
[2] = tested on: Botrytis cinera; assay: Greenhouse Botrytis cinera test in tomato, preventive; type: in vivo; conditions: 24 h, plants sprayed one day before inoculation, read-out: Efficacy (% control), disease severity vs untreated check
[3] = tested on: Botrytis cinerea; assay: Botrytis cinerea (gray mold) in vitro test, radial growth on Potato Dextrose Agar; type: cell-based; conditions: 168 h, 300 ppm, seven days, 22° C., read-out: % (control) compared to the untreated check (radial growth)
[4] = tested on: Alternaria solani; assay: Alternaria solani (early blight of tomato/potato) in vitro test, radial growth on Potato Dextrose Agar; type: cell-based; conditions: 168 h, 300 ppm, seven days, 25° C., read-out: % control compared to the untreated check (radial growth)
[5] = tested on: Rhizoctonia solani; assay: Rhizoctonia solani (rice sheath blight/potato black scurf) in vitro test, radial growth on Potato Dextrose Agar; type: cell-based; conditions: 168 h, 300 ppm, seven days, 25° C., read-out: % control compared to the untreated check (radial growth)
[6] = tested on: Septoria lycopersici; assay: Septoria lycopersici (leaf spot of tomato) in vitro test, radial growth on Potato Dextrose Agar; type: cell-based; conditions: 168 h, seven days, 25° C., read-out: % control compared to the untreated check (radial growth)
[7] = tested on: Colletotrichum capsici; assay: Colletotrichum capsici (anthracnose) in vitro test, radial growth on Potato Dextrose Agar; type: cell-based; conditions: Colletotrichum truncatum, 168 h; 300 ppm; seven days, 25° C.; read-out: % control compared to the untreated check (radial growth)
[8] = tested on: Fusarium culmorum; assay: Fusarium culmorum (foot rot of cereals) in vitro test, radial growth on Potato Dextrose Agar; type: cell-based; conditions: Fusarium culmorum, 168 h, read-out: % control compared to the untreated check (radial growth)

SMILES	inhibition of growth at 300 ppm [1]	pest or weed control at 500 ppm [2]	inhibition of growth at 300 ppm [3]	inhibition of growth at 300 ppm [4]	inhibition of growth at 300 ppm [5]	inhibition of growth at 300 ppm [6]	inhibition of growth at 300 ppm [7]	inhibition of growth at 300 ppm [8]
CCN(C)C=Nc1cc(C)c(Cc2cc(Cl)cc(Cl)c2)cc1C [Compound 3, N′-(4-(3,5-dichlorobenzyl)-2,5-dimethylphenyl)-N-ethyl-N-methylformimidamide]	> 75%	70 to 100%	> 80%	> 75%	> 80%	> 70%	> 80%	–
CCN(C)C=Nc1c(C)cc(Cc2ccc(Br)cc2)c(C)c1Br [Compound 10, N′-(2-bromo-4-(4-bromobenzyl)-3,6-dimethylphenyl)-N-ethyl-N-methylformimidamide]	> 75%	70 to 100%	> 80%	> 75%	> 80%	–	> 80%	–
CCN(C)C=Nc1cc(C)c(Cc2ccccc2[S+](C)[O-])cc1C (stereo not shown) [Compound 24, N′-(2,5-dimethyl-4-(2-(methylsulfinyl)benzyl)phenyl)-N-ethyl-N-methylformimidamide]	> 75%	70 to 100%	–	> 75%	> 80%	> 70%	–	–
Cc1cc(N=CN(C#N)CC#N)c(C)cc1Cc1ccccc1Cl [Compound 90, N′-(4-(2-chlorobenzyl)-2,5-dimethylphenyl)-N-cyano-N-(cyanomethyl)formimidamide]	–	70 to 100%	–	–	–	–	–	–
CCN(C)C=Nc1cc(C)c(Cc2ccccc2OC(F)(F)F)cc1Cl [Compound 102, N′-(2-chloro-5-methyl-4-(2-(trifluoromethoxy)benzyl)phenyl)-N-ethyl-N-methylformimidamide]	> 75%	70 to 100%	> 80%	> 75%	> 80%	> 70%	> 80%	–
CCN(C)C=Nc1cc(C)c(Cc2c(F)cccc2Cl)cc1Cl [Compound 184, N′-(2-chloro-4-(2-chloro-6-fluorobenzyl)-5-methylphenyl)-N-ethyl-N-methylformimidamide]	> 75%	70 to 100%	> 80%	> 75%	> 80%	–	> 80%	–
CCN(C)C=Nc1cc(C)c(Cc2ccc(C)cc2)cc1C1CC1 [Compound 222, N′-(2-cyclopropyl-5-methyl-4-(4-methylbenzyl)phenyl)-N-ethyl-N-methylformimidamide]	> 75%	–	> 80%	> 75%	> 80%	> 70%	> 80%	75%
CCN(C)C=Nc1cc(C)c(Cc2ccccc2Cl)cc1C1CC1 [Compound 223, N′-(4-(2-chlorobenzyl)-2-cyclopropyl-5-methylphenyl)-N-ethyl-N-methylformimidamide]	> 75%	–	> 80%	> 75%	> 80%	> 70%	> 80%	75%
CCN(C)C=Nc1cc(C(F)(F)F)c(Cc2ccc(C)cc2)cc1F [Compound 225, N-ethyl-N′-(2-fluoro-4-(4-methylbenzyl)-5-(trifluoromethyl)phenyl)-N-methylformimidamide]	> 75%	–	> 80%	> 75%	> 80%	> 70%	> 80%	75%
CCN(C)C=Nc1cc(C#N)c(Cc2cccc(Cl)c2)cc1C [Compound 249, N′-(4-(3-chlorobenzyl)-5-cyano-2-methylphenyl)-N-ethyl-N-methylformimidamide]	> 75%	–	> 80%	> 75%	> 80%	> 70%	> 80%	75%
CCN(C)C=Nc1cc(Cl)c(Cc2ccccc2F)cc1C [Compound 256, N′-(5-chloro-4-(2-fluorobenzyl)-2-methylphenyl)-N-ethyl-N-methylformimidamide]	> 75%	–	> 80%	> 75%	> 80%	> 70%	> 80%	75%
CCN(C)C=Nc1cc(Cl)c(Cc2ccccc2C)cc1C [Compound 257, N′-(5-chloro-2-methyl-4-(2-methylbenzyl)phenyl)-N-ethyl-N-methylformimidamide]	> 75%	–	> 80%	> 75%	> 80%	> 70%	> 80%	75%
CCN(C)C=Nc1cc(Cl)c(Cc2cccc(Cl)c2)cc1C [Compound 258, N′-(5-chloro-4-(3-chlorobenzyl)-2-methylphenyl)-N-ethyl-N-methylformimidamide]	> 75%	–	> 80%	> 75%	> 80%	> 70%	> 80%	75%
CCN(C)C=Nc1cc(Cl)c(Cc2cccc(F)c2)cc1C [Compound 259, N′-(5-chloro-4-(3-fluorobenzyl)-2-methylphenyl)-N-ethyl-N-methylformimidamide]	> 75%	–	> 80%	> 75%	> 80%	> 70%	> 80%	75%
CCN(C)C=Nc1cc(Cl)c(Cc2ccc(C)cc2)cc1C [Compound 261, N′-(5-chloro-2-methyl-4-(4-methylbenzyl)phenyl)-N-ethyl-N-methylformimidamide]	> 75%	–	> 80%	> 75%	> 80%	> 70%	> 80%	75%
CCN(C)C=Nc1cc(C(F)(F)F)c(Cc2ccccc2Cl)cc1C1CC1 [Compound 262, N′-(4-(2-chlorobenzyl)-2-cyclopropyl-5-(trifluoromethyl)phenyl)-N-ethyl-N-methylformimidamide]	> 75%	–	> 80%	> 75%	> 80%	> 70%	> 80%	75%
CCN(C)C=Nc1cc(C(F)(F)F)c(Cc2cccc(C)c2)cc1C1CC1 [Compound 263, N′-(2-cyclopropyl-4-(3-methylbenzyl)-5-(trifluoromethyl)phenyl)-N-ethyl-N-methylformimidamide]	> 75%	–	> 80%	> 75%	> 80%	> 70%	> 80%	75%
